Laboratory results published in patent EP4653016A1, “CONJUGATE OF ERIBULIN DRUG” (SystImmune, Inc., priority 2023, dated 2024).

Key:
Experiment in all cases: Cytotoxicity of compounds to tumor cell lines (MTS, 5 days)
Assay type in all cases: cell-based
[1] = test system: A431(human epidermal carcinoma cells); conditions: A-431, 120 h, A431, 5 days
Protocol: (§1) In the present invention, various human-derived tumor cell lines (BxPC-3 (human orthotopic pancreatic adenocarcinoma cell), SW620 (human colon cancer cell), H1975 (human lung adenocarcinoma cell), HCC827 (human lung adenocarcinoma cell), FaDu (human pharyngeal squamous cell carcinoma cell) and A431(human epidermal carcinoma cells)) were used as experimental models to evaluate the cytotoxicity of compound to tumor cell lines. A certain number of tumor cells were seeded into a 96-well plate. After the cells adhered to the wall, gradient dilutions of tested compounds were added to the test cells, followed by incubation at 37 °C and 5% CO2 for 5 days. Cell viability was measured using MTS, and the inhibitory effect of the control compounds and the tested compounds on the tumor cell lines was evaluated byIC50. The compound with a starting concentration of 4000 nM was diluted 7 folds, with a total of 8 concentration points. […] Table 5: In vitro pharmacodynamic activity of control compounds and tested compounds in human-derived tumor cell lines BxPC-3, SW620 and H1975: […]

[2] = test system: BxPC-3 (human orthotopic pancreatic adenocarcinoma cell); conditions: for IC50: Homo sapiens, 120 h, BxPC-3, 5 days, MTS; for anti-tumor effects: in words, BxPC-3, SW620, H1975, HCC827, FaDu and A431 cell models
Protocol: as §1

[3] = test system: FaDu (human pharyngeal squamous cell carcinoma cell); conditions: 120 h
Protocol: as §1

[4] = test system: H1975 (human lung adenocarcinoma cell); conditions: NCI-H1975, 120 h, H1975, 5 days
Protocol: as §1

[5] = test system: HCC827 (human lung adenocarcinoma cell); conditions: 120 h, HCC827, 5 days
Protocol: as §1

[6] = test system: SW620 (human colon cancer cell); conditions: SW-620, 120 h, SW620, 5 days
Protocol: as §1

| SMILES | IC50 [1] | IC50 [2] | IC50 [3] | IC50 [4] | IC50 [5] | IC50 [6] | anti-tumor effects [2] |
| --- | --- | --- | --- | --- | --- | --- | --- |
| C=C1C[C@@H]2CC[C@@]34C[C@H]5O[C@H]6[C@@H](O3)[C@H]3O[C@H](CC[C@@H]3O[C@H]6[C@H]5O4)CC(=O)C[C@@H]3[C@@H](OC)[C@@H](C[C@H](O)CNC)O[C@H]3C[C@H]3O[C@@H](CC[C@@H]1O2)C[C@@H](C)C3=C [D-2] | 0.02 nM | 0.03 nM | 0.37 nM | 0.25 nM | 0.025 nM | 1.25 nM |  |
| C=C1C[C@@H]2CC[C@@]34C[C@H]5O[C@H]6[C@@H](O3)[C@H]3O[C@H](CC[C@@H]3O[C@H]6[C@H]5O4)CC(=O)C[C@@H]3[C@@H](OC)[C@@H](C[C@H](O)CN(C)C(=O)OC(C)(C)C)O[C@H]3C[C@H]3O[C@@H](CC[C@@H]1O2)C[C@@H](C)C3=C [D-3] | < 0.005 nM | < 0.005 nM | < 0.005 nM | < 0.005 nM | < 0.005 nM | < 0.005 nM | the best effects |
| C=C1C[C@@H]2CC[C@@]34C[C@H]5O[C@H]6[C@@H](O3)[C@H]3O[C@H](CC[C@@H]3O[C@H]6[C@H]5O4)CC(=O)C[C@@H]3[C@@H](OC)[C@@H](C[C@H](O)CN(C)C(=O)C(C)(C)C)O[C@H]3C[C@H]3O[C@@H](CC[C@@H]1O2)C[C@@H](C)C3=C [D-12] | < 0.005 nM | < 0.005 nM | < 0.005 nM | < 0.005 nM | < 0.005 nM | < 0.005 nM | the best effects |
| C=CCOC(=O)N(C)C[C@@H](O)C[C@H]1O[C@H]2C[C@H]3O[C@@H](CC[C@@H]4O[C@@H](CC[C@@]56C[C@H]7O[C@H]8[C@@H](O5)[C@H]5O[C@H](CC[C@@H]5O[C@H]8[C@H]7O6)CC(=O)C[C@@H]2[C@H]1OC)CC4=C)C[C@@H](C)C3=C [D-7] | < 0.005 nM | < 0.005 nM | 0.01 nM | 0.01 nM | < 0.005 nM | < 0.005 nM | the best effects |
| C=C1C[C@@H]2CC[C@@]34C[C@H]5O[C@H]6[C@@H](O3)[C@H]3O[C@H](CC[C@@H]3O[C@H]6[C@H]5O4)CC(=O)C[C@@H]3[C@@H](OC)[C@@H](C[C@H](O)CN(C)C(=O)OCc4ccccc4)O[C@H]3C[C@H]3O[C@@H](CC[C@@H]1O2)C[C@@H](C)C3=C [D-8] | < 0.005 nM | < 0.005 nM | < 0.005 nM | < 0.005 nM | < 0.005 nM | < 0.005 nM | the best effects |
| C=C1C[C@@H]2CC[C@@]34C[C@H]5O[C@H]6[C@@H](O3)[C@H]3O[C@H](CC[C@@H]3O[C@H]6[C@H]5O4)CC(=O)C[C@@H]3[C@@H](OC)[C@@H](C[C@H](O)CN(C)S(C)(=O)=O)O[C@H]3C[C@H]3O[C@@H](CC[C@@H]1O2)C[C@@H](C)C3=C [D-14] | 0.01 nM | 0.01 nM | 0.16 nM | 0.1 nM | 0.01 nM | 0.19 nM |  |
| C=C1C[C@@H]2CC[C@@]34C[C@H]5O[C@H]6[C@@H](O3)[C@H]3O[C@H](CC[C@@H]3O[C@H]6[C@H]5O4)CC(=O)C[C@@H]3[C@@H](OC)[C@@H](C[C@H](O)CN(C)C(=O)C(C)C)O[C@H]3C[C@H]3O[C@@H](CC[C@@H]1O2)C[C@@H](C)C3=C [D-11] | 0.02 nM | 0.01 nM | 0.08 nM | 0.06 nM | 0.01 nM | 0.15 nM |  |
| C=C1C[C@@H]2CC[C@@]34C[C@H]5O[C@H]6[C@@H](O3)[C@H]3O[C@H](CC[C@@H]3O[C@H]6[C@H]5O4)CC(=O)C[C@@H]3[C@@H](OC)[C@@H](C[C@H](O)CN(C)C(=O)c4ccccc4)O[C@H]3C[C@H]3O[C@@H](CC[C@@H]1O2)C[C@@H](C)C3=C [D-9] | < 0.005 nM | < 0.005 nM | < 0.005 nM | < 0.005 nM | < 0.005 nM | < 0.005 nM | the best effects |
| C=C1C[C@@H]2CC[C@@]34C[C@H]5O[C@H]6[C@@H](O3)[C@H]3O[C@H](CC[C@@H]3O[C@H]6[C@H]5O4)CC(=O)C[C@@H]3[C@@H](OC)[C@@H](C[C@H](O)CN(C)C(=O)C(F)F)O[C@H]3C[C@H]3O[C@@H](CC[C@@H]1O2)C[C@@H](C)C3=C [D-15] | 0.02 nM | 0.03 nM | 0.33 nM | 0.14 nM | 0.02 nM | 0.69 nM |  |
| C=C1C[C@@H]2CC[C@@]34C[C@H]5O[C@H]6[C@@H](O3)[C@H]3O[C@H](CC[C@@H]3O[C@H]6[C@H]5O4)CC(=O)C[C@@H]3[C@@H](OC)[C@@H](C[C@H](O)CN)O[C@H]3C[C@H]3O[C@@H](CC[C@@H]1O2)C[C@@H](C)C3=C [D-4(eribulin), eribulin] | 0.03 nM | 0.06 nM | 0.73 nM | 0.39 nM | 0.05 nM | 2.56 nM |  |
| C=C1C[C@@H]2CC[C@@]34C[C@H]5O[C@H]6[C@@H](O3)[C@H]3O[C@H](CC[C@@H]3O[C@H]6[C@H]5O4)CC(=O)C[C@@H]3[C@@H](OC)[C@@H](C[C@H](O)CNC(=O)[C@H]4C[C@@H](OC)C4)O[C@H]3C[C@H]3O[C@@H](CC[C@@H]1O2)C[C@@H](C)C3=C [D-21] | 0.12 nM | 0.05 nM | 0.39 nM | 0.24 nM | 0.04 nM | 0.24 nM |  |
| C=C1C[C@@H]2CC[C@@]34C[C@H]5O[C@H]6[C@@H](O3)[C@H]3O[C@H](CC[C@@H]3O[C@H]6[C@H]5O4)CC(=O)C[C@@H]3[C@@H](OC)[C@@H](C[C@H](O)CNC(=O)OC(C)(C)C)O[C@H]3C[C@H]3O[C@@H](CC[C@@H]1O2)C[C@@H](C)C3=C [D-13] | < 0.005 nM | < 0.005 nM | < 0.005 nM | < 0.005 nM | < 0.005 nM | < 0.005 nM | the best effects |
